Test results published in US20110262442A1, “COMPOSITIONS FOR TREATING CNS DISORDERS” (Adenios, Inc., priority 2009, published 2011).

How the values were obtained:
hCMEC/D3 cells [1] = experiment: Jurkat cell migration across hCMEC/D3-seeded Transwell (in vitro BBB); format: cell-based, human; conditions: hCMEC/D3 on Transwell, migrated cells counted after 24 hours
Text: The blood brain barrier (“BBB”) is comprised of endothelial cells. During late stages of EAE, lymphocytes are known to cross the BBB. In order to determine if adenosine receptor stimulation of brain endothelial cells could promote lymphocyte migration through the BBB, an in vitro BBB was established. The human brain endothelial cell line hCMEC/D3 (Weksler et al., “Blood-brain Barrier-specific Properties of a Human Adult Brain Endothelial Cell Line,” […] (2005); Poller et al., “The Human Brain Endothelial Cell Line hCMEC/D3 as a Human Blood-brain Barrier Model for Drug Transport Studies,” J. Neurochem. 107(5):1358-1368 (2008), which are hereby incorporated by reference in their entirety) was obtained, which has been previously described as having BBB properties.
hCMEC/D3 cells were seeded onto Transwell and allowed to grow to confluencey. 2×10^6 Jurkat cells were added to the upper chamber with or without NECA (general adenosine receptor [AR] agonist), CCPA (A1 AR agonist), CGS 21860 (A2A AR agonist), or DMSO vehicle. After 24 hours, migrated cells in the lower chamber were counted. Values are relative to the number of cells that migrate through non-HCMECD3 seeded transwells.

brain endothelial cells = experiment: Actin stress fiber induction in brain endothelial cells; format: cell-based
Experimental: To test this brain endothelial cells were treated with either CCPA (to agonize A1 adenosine receptors) or […] (to agonize the A2A adenosine receptor).

hCMEC/D3 cells [2] = experiment: cAMP levels in human brain endothelial cells (cAMP Screen kit); format: cell-based; conditions: 15 minutes treatment, various concentrations (CCPA: at high levels)
Experimental: Adenosine receptor activation regulates cAMP levels in cells. In order to determine the sensitivity of human brain endothelial cells to adenosine receptor induced cAMP regulation, human brain endothelial cells were cultured with adenosine receptor agonists at various concentrations, followed by cAMP level analysis, as shown in FIG. 13.
HCMECD3 cells were grown to confluencey on 24 well plates. As adenosine receptor (“AR”) stimulation is known to influence cAMP levels, cells were treated with or without various concentrations of NECA (general AR agonist), CCPA (A1 AR agonist), CGS 21860 (A2A AR agonist), DMSO vehicle, or Forksolin (induces cAMP). After 15 minutes, lysis buffer was added and the cells were frozen at −80 C to stop the reaction. Duplicate samples were used for each condition. cAMP levels were assayed using a cAMP Screen kit (Applied Biosystems, Foster City, Calif.).

blood brain barrier [3] = experiment: Fluorimetric analysis of labeled dextrans in brain after i.v. drug administration; format: in vivo, mice; conditions: wild type mice, 10,000 Da FITC-dextran; for dextran entry into the CNS compared to NECA administration: 3 h after i.v. administration; for dextran entry into the CNS compared to vehicle treatment: 3 h after i.v. co-administration
Experimental: C57BL/6 mice from Jackson Laboratories were used as wild types. All mice used were aged 7-9 weeks and weighed between 20-25 g. All rats were aged 8 weeks and weighed 200-220 g. Mice and rats were bred and housed under specific pathogen-free conditions.
The adenosine receptor agonists NECA, CCPA and CGS 21860 were purchased from Tocris. Each was dissolved in DMSO then diluted in PBS to the desired concentration; in most cases final DMSO concentrations were <0.5% (vol/vol). For vehicle controls, DMSO was diluted in PBS to the same concentration. Dehydrated dextrans labeled with either FITC or Texas Red were purchased from Invitrogen and re-suspended in PBS to 10 mg ml^−1. All experiments involving dextran injection used 0.5 mg dextran in PBS. In experiments where drug and dextran were injected concomitantly, 0.5 mg of dextran was mixed with the drug to the desired concentration in a final volume of 200 μl. All injections were retro-orbital i.v. with a 27-gauge needle. In the SCH 58261 experiment, groups were administered vehicle or SCH 58261 for 4 d. Vehicle/drug and dextrans were injected on day 5 and tissues were collected 3 h after vehicle/drug administration. In Lexiscan experiments, Lexiscan was administered i.v. with 3 injections, 5 min apart and tissues were collected at 15 min unless otherwise indicated.
In dose-response experiments and experiments with the A1 AR and A2A AR knock-out mice, drugs and dextrans were injected concomitantly. After 3 h, the mice were anesthetized with ketamine/xylazine and subjected to a nose cone containing isoflurane. They were perfused with 25-50 ml ice-cold PBS through the left ventricle of the heart then decapitated. Their brains were removed, weighed and frozen for later analysis.
Ice-cold 50 mM Tris-Cl (pH 7.6) was added to frozen brains (100 μl per 100 mg brain) and were to thawed on ice. They were homogenized manually with ˜45 strokes of a dounce homogenizer in plastic 1.5 ml microfuge tubes then spun at 16.1 g in a microfuge for 30 min at room temperature (rt). The supernatants were transferred to new tubes and an equal volume absolute methanol was added. The samples were spun again at 16.1 g for 30 min at rt. Supernatant (200 μl) was transferred to a Corning costar 96 well black polystyrene assay plate (clear bottom). Additionally, a series of standards containing 0.001-10 μg ml^−1 dextran in 50% Tris-Cl/50% absolute methanol (vol/vol) was added to each plate. Absolute concentrations of dextrans were derived from these standard curves. Fluorimetric analysis was performed on a BioTek Synergy 4. FITC-dextran was detected at 488/519 (excitation/emission) and Texas Red-dextran was detected at 592/618.

Z310 cells = experiment: Jurkat cell migration across Z310-seeded Transwell (choroid plexus); format: cell-based, murine; conditions: Z310 cells on Transwell, migrated cells counted after 24 hours, n=1
Experimental: The choroid plexus (“CP”) controls lymphocyte migration into the CNS. The CP expresses the A1 and A2A adenosine receptors. EAE is prevented in mice when A2A adenosine receptor activity is blocked. EAE is enhanced when the A1 adenosine receptor is missing. It was hypothesized that A2A adenosine receptor activation promotes lymphocyte migration across the CP. Z310 cells are a murine choroid plexus cell line. To test the hypothesis, Transwell membranes were seeded with Z310 cells and allowed to grow to confluencey. 2×10^6 Jurkat cells were added to the upper chamber with or with out NECA (n=1, general AR agonist), CCPA (n=1, AAR agonist), CGS 21860 (n=1, A2AAR agonist), or DMSO vehicle (n=1). After 24 hours, migrated cells in the lower chamber were counted. Values are relative to the number of cells that migrate through non-Z310 seeded transwells and the results are shown in FIG. 12.

blood brain barrier [4] = experiment: FITC-Dextran extravasation through the brain endothelium (brain sections); format: in vivo, mice; conditions: 10,000 MW FITC Dextran IP, 30 minutes
Experimental: In order to examine the effects of caffeine, a general adenosine receptor antagonist, on blood brain barrier permeability, mice were fed caffeine for several days and then injected with FITC Dextran, commonly used to assess endothelial permeability.
More particularly, mice were fed 0.6 g/l caffeine (Sigma, St. Louis, Mo.) in water or regular water ad lib for five days. Mice were injected IP with FITC Dextran (10,000 MW, Molecular Probes, Eugene, Oreg.) and after 30 minutes mice were perfused with ice cold PBS via the left ventricle. Brains were removed and snap frozen in OCT (Tissue Tek, Torrance, Calif.) and stored at −80° C. until sectioning. Tissue sections (5 μm) were stained with hematoxylin for light microscopy and with DAPI for a fluorescent counterstain.

[5] = system: Experimental Autoimmune Encephalomyelitis (EAE); experiment: MOG-induced EAE induction and daily scoring; format: in vivo, mice
Text: Cd73^−/− mice have been previously described (Thompson et al., “Crucial Role for Ecto-5′-Nucleotidase (CD73) in Vascular Leakage During Hypoxia,” J. Exp. Med. 200:1395-1405 (2004), which is hereby incorporated by reference in its entirety) and have been backcrossed to C57BL/6 for 14 generations. Cd73 mice have no overt susceptibility to infection and appear normal based on the size and cellular composition of their lymphoid organs and their T and B cell responses in in vivo and in vitro assays (Thompson et al., “Crucial Role for Ecto-5′-Nucleotidase (CD73) in Vascular Leakage During Hypoxia,” J. Exp. Med. 200:1395-1405 (2004), which is hereby incorporated by reference in its entirety). C57BL/6 and tcrα^−/− mice on the C57BL/6 background were purchased from The Jackson Laboratories. Mice were bred and housed under specific pathogen-free conditions at Cornell University or the University of Turku. For adenosine receptor blockade experiments, mice were given drinking water supplemented with 0.6 g/L of caffeine (Sigma) or 2 mg/kg SCH58261 (1 mg/kg s.c. and 1 mg/kg i.p.) in DMSO (45% vol. in PBS) or 45% DMSO alone starting 1 day before EAE induction and continuing throughout the experiment. All procedures performed on mice were approved by the relevant animal review committee.
EAE was induced by subjecting mice to the myelin oligodendrocyte glycoprotein (“MOG”) EAE-inducing regimen as described in Swanborg, “Experimental Autoimmune Encephalomyelitis in Rodents as a Model for Human Demyelinating Disease,” Clin. Immunol. Immunopathol. 77:4-13 (1995) and Bynoe et al., “Epicutaneous Immunization with Autoantigenic Peptides Induces T Suppressor Cells that Prevent Experimental Allergic Encephalomyelitis,” Immunity 19:317-328 (2003), which are hereby incorporated by reference in their entirety. Briefly, a 1:1 emulsion of MOG35-55 peptide (3 mg/ml in PBS) (Invitrogen) and complete Freund's adjuvant (CFA, Sigma) was injected subcutaneously (50 μl) into each flank. Pertussis toxin (PTX, 20 ng) (Biological Laboratories Inc.) was given intravenously (200 μl in PBS) at the time of immunization and again 2 days later. Mice were scored daily for EAE based on disease symptom severity; 0=no disease, 0.5-1=weak/limp tail, 2=limp tail and partial hind limb paralysis, 3=total hind limb paralysis, 4=both hind limb and fore limb paralysis, 5=death. Mice with a score of 4 were euthanized.

| Molecule | lymphocyte (Jurkat) migration across the in vitro BBB (hCMEC/D3 cells [1]) | actin stress fibers compared to vehicle alone (brain endothelial cells) | cAMP levels (hCMEC/D3 cells [2]) | dextran entry into the CNS compared to NECA administration (blood brain barrier [3]) | dextran entry into the CNS compared to vehicle treatment (blood brain barrier [3]) | lymphocyte (Jurkat) migration across the CP (Z310 cells) | FITC-Dextran extravasation across the blood brain barrier (blood brain barrier [4]; CD73−/− mice fed 0.6 g/l caffeine for five days, compared with wild type mice) | FITC-Dextran extravasation across the blood brain barrier (blood brain barrier [4]; wild type mice (caffeine feeding experiment), compared with CD73−/− mice) | EAE development ([5]; cd73−/− mice, caffeine 0.6 g/L in drinking water) | EAE development ([5]; wild type mice, caffeine 0.6 g/L in drinking water from 1 day prior to and throughout EAE experiment) | development of EAE (mean EAE score) ([5]; wild-type mice, 15 units/kg body weight i.p. every 4 days, vs PBS vehicle) |
| --- | --- | --- | --- | --- | --- | --- | --- | --- | --- | --- | --- |
| OC[C@H]1O[C@@H](n2cnc3c(NC4CCCC4)nc(Cl)nc32)[C@H](O)[C@@H]1O [CCPA, 2-chloro-N^6-cyclopentyladenosine] | induced lymphocyte migration at high levels | induction of actin stress fibers was observed | increased cAMP levels | significantly lower than that observed after NECA administration | increased dextran entry into the CNS | induced lymphocyte migration at high levels | – | – | – | – | – |
| CCNC(=O)[C@H]1O[C@@H](n2cnc3c(N)nc(NCCc4ccc(CCC(=O)O)cc4)nc32)[C@H](O)[C@@H]1O [CGS 21680, 4-[2-[[6-Amino-9-(N-ethyl-b-D-ribofuranuronamidosyl)-9H-purin-2-yl]amino]ethyl]benzenepropanoic acid] | promoted lymphocyte migration across the in vitro BBB when used at a lower concentration | – | slightly increased cAMP levels | significantly lower than that observed after NECA administration | increased dextran entry into the CNS | promoted lymphocyte migration across the CP | – | – | – | – | – |
| Cn1c(=O)c2c(ncn2C)n(C)c1=O [caffeine] | – | – | – | – | – | – | less FITC-Dextran extravasation | more FITC-dextran extravasation | did not develop EAE | dramatically protected against EAE development | – |
| PEG-ADA: PEGylated adenosine deaminase (protein, UniProt P56658 2-363, looked up, PEGylated, PEGylated adenosine deaminase) Adenosine deaminase: AQTPAFNKPKVELHVHLDGAIKPETILYYGRKRGIALPADTPEELQNIIGMDKPLSLPEFLAKFDYYMPAIAGCREAVKRIAYEFVEMKAKDGVVYVEVRYSPHLLANSKVEPIPWNQAEGDLTPDEVVSLVNQGLQEGERDFGVKVRSILCCMRHQPSWSSEVVELCKKYREQTVVAIDLAGDETIEGSSLFPGHVKAYAEAVKSGVHRTVHAGEVGSANVVKEAVDTLKTERLGHGYHTLEDATLYNRLRQENMHFEVCPWSSYLTGAWKPDTEHPVVRFKNDQVNYSLNTDDPLIFKSTLDTDYQMTKNEMGFTEEEFKRLNINAAKSSFLPEDEKKELLDLLYKAYGMPSPASAEQCL | – | – | – | – | – | – | – | – | – | – | inhibits the development of EAE |
